Bounds are passed on as bounds.

Assay [1] relates to MCF7. The assay can be described thus: Cytotoxicity against human MCF7 cells assessed as reduction in cell viability incubated for 24 hrs by MTT assay. The conditions noted are these: MCF7, 24 h. It counts as functional, cell-based. For orientation: Tetrazolium assays rely on reduction of a dye to a coloured formazan, in cell work by metabolically active cells.
Assay [2] has as its target T1, Carbonic anhydrase 1 (Homo sapiens, UniProt P00915). The assay can be described thus: Binding affinity to human CA I assessed as inhibition constant by spectrophotometric analysis.
The subject of assay [3] is HT-29. Description: Cytotoxicity against human HT-29 cells assessed as reduction in cell viability incubated for 24 hrs by MTT assay. The settings on record: HT-29, 24 h. It counts as functional, cell-based.
In assay [4] the test system is PC-3. Description: Cytotoxicity against human PC-3 cells assessed as reduction in cell viability incubated for 24 hrs by MTT assay. It counts as functional, cell-based. The settings on record: PC-3, 24 h.
Assay [5] addresses Carbonic anhydrase 5B, mitochondrial (Homo sapiens, UniProt Q9Y2D0). Description: Binding affinity to human CA VB-catalysed CO2 hydration activity assessed as inhibition constant pre-incubated for 15 mins by stopped-flow instrument method.
The target of assay [6] is T2, Carbonic anhydrase 9 (Homo sapiens, UniProt Q16790). Description: Binding affinity to human recombinant CA IX assessed as inhibition constant.
Assay [7] has as its system HepG2. Description: Antiproliferative activity against human HepG2 cells assessed as reduction in cell viability by SRB assay. It counts as functional, cell-based.
For assay [8], the target named is T3, Carbonic anhydrase 12 (Homo sapiens, UniProt O43570). The assay can be described thus: Binding affinity to human recombinant CA XII assessed as inhibition constant.
The test system of assay [9] is MCF7. The assay can be described thus: Antiproliferative activity against human MCF7 cells assessed as reduction in cell viability by SRB assay. Format: functional, cell-based. (The SRB assay estimates cell density from bound dye.)
Assay [10] has as its target T4, Carbonic anhydrase 2 (Homo sapiens, UniProt P00918). Description: Binding affinity to human Carbonic anhyrase 2 assessed as inhibition constant pre-incubated for 10 mins by stopped-flow instrument based assay.
Assay [11] deals with T1, Carbonic anhydrase 1. The assay can be described thus: Binding affinity to human Carbonic anhyrase 1 assessed as inhibition constant pre-incubated for 10 mins by stopped-flow instrument based assay.
For assay [12], the target named is T4, Carbonic anhydrase 2. The assay can be described thus: Binding affinity to human CA II assessed as inhibition constant pre-incubated for 15 mins by stopped-flow CO2-hydrase assay method.
For assay [13], the system named is HCT-116. The assay can be described thus: cells. Format: functional, cell-based. The settings on record: Homo sapiens.
Description: Cytotoxicity against human HCT-116 cells
Assay [14] concerns MCF7. Description: cells. The settings on record: Homo sapiens. It counts as functional, cell-based.
The target in assay [15] is T2, Carbonic anhydrase 9. Description: Binding affinity human CA IX assessed as inhibition constant.
For assay [16], the target named is T1, Carbonic anhydrase 1. Description: Inhibition of human Carbonic anhydrase 1.
Assay [17] has as its target Carbonic anhydrase 4 (Homo sapiens, UniProt P22748). Description: Binding affinity to human CA4 assessed as inhibition constant.
Assay [18] deals with T4, Carbonic anhydrase 2. The assay can be described thus: Inhibition of human Carbonic anhydrase 2.
Assay [19] concerns the target T4, Carbonic anhydrase 2. The assay can be described thus: Binding affinity to human CA II assessed as inhibition constant.
Assay [20] has as its system MDA-MB-231. The assay can be described thus: Anticancer activity against human MDA-MB-231 cells assessed as reduction in cell viability under normoxia condition. Format: functional, cell-based.
Assay [21] has as its system MCF7. The assay can be described thus: Anticancer activity against human MCF7 cells assessed as reduction in cell viability under hypoxia condition. It counts as functional, cell-based.
Assay [22] concerns MCF7. Description: Anticancer activity against human MCF7 cells assessed as reduction in cell viability under normoxia condition. It counts as functional, cell-based.
Assay [23] deals with MDA-MB-231. Description: Anticancer activity against human MDA-MB-231 cells assessed as reduction in cell viability under hypoxia condition. It counts as functional, cell-based.
The nature of assay [24]: Inhibition of Hsp70 (unknown origin). The arrangement: species or system Homo sapiens.
The species entered for assay [25] is Homo sapiens. Description: Selectivity ratio of IC50 for human CA I to IC50 for human CA II.
For assay [26], the species on record is Homo sapiens. The assay can be described thus: Selectivity ratio of IC50 for human CA IX to IC50 for human CA II.
The target in assay [27] is T4, Carbonic anhydrase 2. The assay can be described thus: Binding affinity to human CA II assessed as inhibition constant by spectrophotometric analysis.
Assay [28] concerns the target T3, Carbonic anhydrase 12. The assay can be described thus: Binding affinity to human CA XII assessed as inhibition constant.
Assay [29] concerns the target T1, Carbonic anhydrase 1. Description: Binding affinity to human CA I assessed as inhibition constant.
The target of assay [30] is T2, Carbonic anhydrase 9. The assay can be described thus: Inhibition of human Carbonic anhydrase IX.
Assay [31] deals with A549. Description: Antiproliferative activity against human A549 cells assessed as reduction in cell viability by SRB assay. It counts as functional, cell-based.
Assay [32] has as its system MCF7. The assay can be described thus: Anticancer activity against human MCF7 cells assessed as reduction in cell viability measured after 72 hrs by MTT assay. Format: functional, cell-based. The settings on record: MCF7, 72 h.
Assay [33] relates to MDA-MB-231. The assay can be described thus: Anticancer activity against human MDA-MB-231 cells assessed as reduction in cell viability measured after 72 hrs by MTT assay. Format: functional, cell-based. The conditions noted are these: MDA-MB-231, 72 h.
In assay [34] the test system is HepG2. The assay can be described thus: Anticancer activity against human HepG2 cells assessed as reduction in cell viability measured after 72 hrs by MTT assay. It counts as functional, cell-based. The conditions noted are these: HepG2, 72 h.

T1 sequence (P00915 whole entry): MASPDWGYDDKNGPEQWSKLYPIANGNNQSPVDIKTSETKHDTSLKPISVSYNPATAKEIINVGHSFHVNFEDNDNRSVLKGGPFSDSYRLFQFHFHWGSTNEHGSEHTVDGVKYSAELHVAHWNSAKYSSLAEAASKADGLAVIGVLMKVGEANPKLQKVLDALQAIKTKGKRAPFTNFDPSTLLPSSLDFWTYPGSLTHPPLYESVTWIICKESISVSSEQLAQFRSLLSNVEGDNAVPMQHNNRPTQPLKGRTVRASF
T3 sequence (O43570 whole entry): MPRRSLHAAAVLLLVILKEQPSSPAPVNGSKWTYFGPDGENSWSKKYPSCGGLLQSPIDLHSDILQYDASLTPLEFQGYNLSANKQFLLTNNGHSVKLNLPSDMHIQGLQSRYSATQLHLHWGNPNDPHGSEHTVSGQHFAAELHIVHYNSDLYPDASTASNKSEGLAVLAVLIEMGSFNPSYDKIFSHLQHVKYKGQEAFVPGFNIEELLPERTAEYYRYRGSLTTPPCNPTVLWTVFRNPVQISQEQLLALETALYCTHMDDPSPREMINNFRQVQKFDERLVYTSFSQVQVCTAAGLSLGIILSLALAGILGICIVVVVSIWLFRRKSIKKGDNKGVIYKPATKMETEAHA
Carbonic anhydrase 5B, mitochondrial, sequence (Q9Y2D0 whole entry): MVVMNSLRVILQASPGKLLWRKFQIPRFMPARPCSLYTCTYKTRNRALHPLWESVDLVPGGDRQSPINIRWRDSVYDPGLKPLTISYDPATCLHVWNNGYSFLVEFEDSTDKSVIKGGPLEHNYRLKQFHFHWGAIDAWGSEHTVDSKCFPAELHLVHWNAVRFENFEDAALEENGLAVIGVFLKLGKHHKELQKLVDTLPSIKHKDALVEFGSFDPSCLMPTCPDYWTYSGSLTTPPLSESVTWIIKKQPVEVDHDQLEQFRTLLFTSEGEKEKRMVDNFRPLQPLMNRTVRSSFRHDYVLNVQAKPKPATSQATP
Carbonic anhydrase 4, sequence (P22748 whole entry): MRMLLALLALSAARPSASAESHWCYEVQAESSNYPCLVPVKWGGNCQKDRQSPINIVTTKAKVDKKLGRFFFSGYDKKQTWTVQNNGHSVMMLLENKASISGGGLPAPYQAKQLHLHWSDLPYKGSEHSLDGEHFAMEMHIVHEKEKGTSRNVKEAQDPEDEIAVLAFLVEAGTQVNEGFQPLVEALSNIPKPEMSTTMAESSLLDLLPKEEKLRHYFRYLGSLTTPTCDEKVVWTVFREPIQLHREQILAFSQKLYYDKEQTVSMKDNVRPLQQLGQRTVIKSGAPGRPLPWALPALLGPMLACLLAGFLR

Consider `Cc1ccc(C(C)C)cc1OCc1cn(CCCCCCOc2ccc3ccc(=O)oc3c2)nn1`, for which, in assay [1], the IC50 (as a rule, the concentration that inhibits the measured activity by half) amounted to 2480 nM. As to `O=C(NC(=S)Nc1ccc(S(=O)(=O)Nc2nccs2)cc1)c1ccc(F)cc1`, the Ki (usually a measure of affinity in units of concentration, obtained from inhibition or displacement) in [2] was 14 nM. `Cc1ccc(C(C)C)c(OCc2cn(CCCCOc3ccc4ccc(=O)oc4c3)nn2)c1`: the concentration for half-maximal inhibition (IC50) in [3] amounted to 12100 nM; in assay [4] it was 9400 nM. Turning to `COc1ccccc1NC(=O)SOS(N)(=O)=O`, the Ki in assay [5] was 345 nM.

`Nc1nn(C(=O)C23CC4CC(CC(C4)C2)C3)c(N)c1/N=N/c1ccccc1`: the Ki came out at 85 nM in assay [6] and 140 nM in assay [8]. Further, the IC50 in [7] and in assay [9] was less than 5000 nM in each case. Turning to `NS(=O)(=O)c1ccc(-n2cc(Cn3cc(/C=C/C(=O)c4ccc(Br)cc4)c4ccccc43)nn2)cc1`, the results for the Ki in [10] and in [11] were 468 nM and 18.8 nM, respectively. With `NS(=O)(=O)c1ccc(-c2ccc(-c3cnc(C(=O)N4CCNCC4)o3)s2)cc1`, the Ki in [12] was found to be 4 nM. As for `Cc1nn(-c2ccc(S(N)(=O)=O)cc2)c2c1C(c1ccc(F)cc1F)C(C#N)=C(N)O2` (stereo unspecified), the values for the IC50 in assay [13] and in assay [14] were 1300 nM and 1690 nM, respectively. Moreover, the Ki in assay [15] stood at 19 nM. In assay [16], `CCCCCCCCn1c2ccccc2c2cc(/N=C/c3ccc(O)c(O)c3)ccc21` yielded an IC50 of 32100 nM. Turning to `Cc1c(/C=N/Nc2nc(-c3ccc(F)cc3)cs2)nnn1-c1cccc(S(N)(=O)=O)c1`, the Ki in assay [17] turned out to be 88 nM. On to `CCCCCCCCn1c2ccccc2c2cc(/N=C/c3cccc(O)c3O)ccc21`, for which the IC50 in assay [18] is 21800 nM. Turning to `CCOc1ccccc1NC(=O)SOS(N)(=O)=O`, the Ki in assay [5] was found to be 271 nM. In the case of `Cn1c(N)c(NCc2cc(I)ccc2O)c(=O)n(C)c1=O`, the Ki in assay [19] came to 16.3 nM. On to `COc1cccc(NC(=O)Nc2cccc(OC)c2)c1`, for which the concentration for half-maximal inhibition (IC50) amounted to 6300 nM in assay [20]; 1100 nM in [21]; 3700 nM in assay [22]; 12400 nM in [23]; 15300 nM in assay [24]. Regarding `N=C(N)NS(=O)(=O)c1ccc(/N=N/Nc2c(F)c(F)c(F)c(F)c2F)cc1`, the Ki in [19] is 8.16 nM. Molecule `NS(=O)(=O)c1ccc(CCNC(=O)c2ccc3c(c2)C(=O)c2ccccc2C3=O)cc1` gave an IC50 in assay [18] of 21.2 nM. For the molecule `Cc1ccc(C)c(NC(=O)SOS(N)(=O)=O)c1`, the Ki in assay [5] was found to be 516 nM. For the molecule `Cc1nn(-c2ccc(S(N)(=O)=O)cc2)c2c1C(c1c(F)cccc1F)C(C#N)=C(N)O2` (stereo unspecified), the results for the Ratio IC50 in assay [25] and in [26] were 14.3 and 7.42, respectively. Further, the inhibition constant (Ki) in assay [15] was 19 nM. In the case of `Cc1ccnc(NS(=O)(=O)c2ccc(NC(=S)NC(=O)c3ccc(F)cc3)cc2)n1`, the Ki in assay [27] stood at 8.15 nM. Turning to `Cc1ccc(C(=O)/C=C/c2cn(Cc3cn(-c4ccc(S(N)(=O)=O)cc4)nn3)c3ccccc23)cc1`, the figures for the Ki in [10] and in assay [11] were 36.2 nM and 50.4 nM, respectively. As for `O=C(NC(=S)Nc1ccc(S(=O)(=O)Nc2nccs2)cc1)c1ccccc1`, the Ki in assay [2] came to 20.7 nM. For the molecule `COc1cccc(NC(=O)Nc2ccc(S(N)(=O)=O)cc2)c1`, the IC50 in assay [20] worked out at 6300 nM; in [21], 14400 nM; in assay [22], 4600 nM; in [23] it was 12500 nM; in [24], 19400 nM. For the same molecule, the Ki is 9.1 nM in [28] and 4.1 nM in [15]. Turning to `Cc1sc2ncnc(Nc3ccc(S(N)(=O)=O)cc3)c2c1C`, in assay [15], the Ki stood at 16.1 nM. As for `NC1=C(n2c(-c3ccc(Cl)cc3)cs/c2=N\C(=O)c2c(F)cccc2F)C(=O)c2ccccc2C1=O`, the Ki in [29] is 67.9 nM. For the molecule `NS(=O)(=O)c1ccc(C(=O)Nc2nc(C(=O)OCCCN3CCOCC3)cs2)cc1`, the Ki in assay [29] amounted to 27.3 nM; in assay [19], 6.92 nM.

In the case of `Clc1ccccc1-c1nc2cc(-c3ccc4[nH]c(-c5ccccc5Cl)nc4c3)ccc2[nH]1`, the IC50 in assay [30] was 5230 nM. As for `CC(=O)c1ccc(N/N=N/c2ccc(S(=O)(=O)NC(=N)N)cc2)cc1`, the Ki in assay [29] worked out at 6.44 nM. On the same count and under the same terms, the result for `C/C(=N\Nc1nc(-c2ccc(C)cc2)cs1)c1nnn(-c2ccc(S(N)(=O)=O)cc2)c1C` reads 40.6 nM. For `CC(=O)C(C)/C(C)=N/NC(=O)C12CC3CC(CC(C3)C1)C2` (stereo unspecified), the IC50 in [31], in assay [7] and in assay [9] was less than 5000 nM in each case. As to `NS(=O)(=O)c1ccc(C(=O)Nc2ncc(C(=O)NCCN3CCOCC3)s2)cc1`, the Ki amounted to 45.9 nM in assay [29] and 6.51 nM in [19]. For the molecule `COc1ccc(C2C(C#N)=C(N)Oc3c2c(C)nn3-c2ccc(S(N)(=O)=O)cc2)cc1O` (stereo unspecified), the IC50 in [13] was determined as 4620 nM; in assay [14], 1880 nM. In addition, the Ki in [15] worked out at 12 nM. As for `CCOC(=O)c1sc(NC(=O)c2ccc(S(N)(=O)=O)cc2)nc1C(F)(F)F`, the Ki stood at 38.5 nM in assay [29] and 7.36 nM in assay [19]. For the molecule `NS(=O)(=O)c1ccc(NC(=S)NC(=O)c2ccc3c(c2)C(=O)c2ccccc2C3=O)cc1`, the IC50 in assay [32] worked out at 69400 nM; in [33], 46200 nM; in assay [34], 28100 nM. On to `Cn1c(N)c(NCc2ccc(Br)cc2O)c(=O)n(C)c1=O`, for which the Ki in assay [29] was 36.1 nM. In the case of `COC(=O)[C@H]1O[C@@H](NC(=O)c2ccc(S(N)(=O)=O)cc2)[C@H](O)[C@@H](O)[C@@H]1O`, the Ratio IC50 in assay [25] worked out at 44.4. With `COc1cccc(C(=O)/C=C/c2cn(Cc3cn(-c4ccc(S(N)(=O)=O)cc4)nn3)c3ccccc23)c1`, the values for the Ki in assay [10] and in assay [11] were 716 nM and 38.3 nM, respectively. With `NS(=O)(=O)c1ccc(C(=O)Nc2nc(C(=O)OCCN3CCOCC3)cs2)cc1`, the Ki stood at 49.8 nM in assay [29] and 5.97 nM in assay [19].

Consider `COc1ccc(-c2cs/c(=N\C(=O)c3c(F)cccc3F)n2C2=C(N)C(=O)c3ccccc3C2=O)cc1`, for which the Ki in assay [19] amounted to 55.3 nM.

Turning to `Cc1ccc(-c2c(/C=N/NC(=O)C34CC5CC(CC(C5)C3)C4)n[nH]c2-c2ccccc2)cc1`, the IC50 in [31], in [7] and in assay [9] was less than 5000 nM each time. `CCOC(=O)c1sc2ncnc(Nc3ccc(S(N)(=O)=O)cc3)c2c1C`: the Ki was 19 nM in assay [28], 13.8 nM in assay [15] and 8.6 nM in assay [19].

With `Cc1ccc(NC(=O)SOS(N)(=O)=O)cc1`, the Ki in assay [5] worked out at 462 nM.

The values are drawn from ChEMBL document CHEMBL6103538, “Carbonic anhydrases: Moiety appended derivatives, medicinal and pharmacological implications” (Bioorg Med Chem, 2024).
